The text below walks through data of PMC9139002, “Naphthoquinone as a New Chemical Scaffold for Leishmanicidal Inhibitors of Leishmania GSK-3” (Biomedicines, 2022).

The structures appear in SMILES notation.

Experiment [1] has as its system L. donovani promastigotes. Put plainly: Mitochondrial membrane depolarization (Rhodamine 123 accumulation). Format: cell-based, Leishmania donovani. The note with it: 4 h.
Experiment [2] has as its system L. infantum promastigotes. In words: Leishmanicidal activity on promastigotes (MTT reduction), Table 2 and Table S1. Format: cell-based, Leishmania infantum. The note with it: Leishmania infantum. Here is the method:
(§1) Both activities were assessed by inhibition of MTT (3-(4,5-dimethylthiazol-2-yl)-2,5-diphenyltetrazolium bromide) reduction, as described in [34]. Samples were made in triplicate and assays were repeated at least twice. DMSO content in the medium was adjusted to 0.25% v/v (final concentration), regardless of the final concentration of the drug, and for the control, the untreated parasites. ICx (inhibitory concentration that inhibits parasite growth or enzymatic activity by x%) was calculated using the statistical module of SigmaPlot v11.0 software.
In a step ahead, the leishmanicidal activity of the compounds on L. pifanoi axenic amastigotes and L. infantum promastigotes was evaluated. Axenic Leishmania amastigotes afford the appraisal of the leishmanicidal activity without the constrains imposed on the access of the compounds to intracellular amastigotes within the parasitophorous vacuole, as well as to preclude the interference of the compounds via host–parasite interface in the final activity. For that, the axenic line of L. pifanoi amastigotes belonging to the mexicana complex was chosen, as in this species the infectivity, antigenicity, and metabolic identity between axenic and intracellular amastigotes have been consistently validated.
(In general: Tetrazolium dyes change colour on reduction, which living cells bring about.)

The target of experiment [3] is T1, LdGSK-3s (Leishmania donovani, UniProt A6N857). Put plainly: Mechanism of inhibition of LdGSK-3s (kinetics versus ATP, Eadie–Scatchard plot). The note with it: ATP 1 to 10 μM, inhibitor 2.5 and 5 μM, GS2 25 μM. Format: biochemical. Here is the method: Briefly, kinetic experiments were carried out at four different concentrations of ATP (10, 5, 2.5, and 1 µM), in the absence or presence of the inhibitors, at either 2.5 or 5 µM, while the phospho-glycogen synthase peptide-2 (GS2) substrate was kept constant at 25 µM. The data were processed using Microsoft Excel software and results presented as Eadie–Scatchard plots (v vs. v/[ATP]).

In experiment [4] the test system is L. pifanoi axenic amastigotes. Put plainly: Leishmanicidal activity on axenic amastigotes (MTT reduction). Format: cell-based, Leishmania pifanoi. The note with it: Leishmania pifanoi.
Experiment [5] relates to intracellular L. pifanoi amastigotes. In words: Parasite load of macrophages infected with mCherry-L. pifanoi amastigotes. Format: cell-based, Leishmania pifanoi.
Experiment [6] has as its target T1, LdGSK-3s. In words: Inhibition of recombinant LdGSK-3s with Kinase Glo. The note with it: for IC50: recombinant LdGSK-3s, Kinase Glo. Format: biochemical. Here is the method:
(§2) Extraction, purification, and evaluation of compounds against recombinant LdGSK-3s was carried out as described. For that, a recombinant LdGSK-3s with a His-tag was obtained as inclusion bodies, that were further solubilized, and purified by chromatography first on a Ni^2+ column an in a second step on a DEAE (diethylaminoethyl) ionic exchange column. Samples were made in duplicate, and assays were repeated at least three times. IC50 (inhibitory concentration that decreases enzymatic activity by 50%) was calculated using the statistical module of SigmaPlot v11.0 software. Evaluation of compounds against hGSK-3β was performed using human recombinant GSK-3β purchased from Millipore as described previously. Compounds were prepared as a 10 mM stock solution in DMSO.
(In general: In Kinase-Glo more light means more ATP remaining.)

Experiment [7] concerns L. donovani promastigotes. In words: Sub G0/G1 population (propidium iodide flow cytometry). The experiment is classed as cell-based, Leishmania donovani. Particulars: 72 h. The procedure:
L. donovani promastigotes (2 × 10^6 cells/mL) in RPMI-HIFCS were incubated with each compound in 24-well plates for 72 h at 26 °C by duplicate. Next, compounds were removed by washing with HBSS-Glc (15,700× g, 4 min, 4 °C) and cells were resuspended in […] of HBSS-Glc, fixed and permeabilized by addition of 200 μL 70% cold EtOH and incubated overnight at 4 °C. Ethanol was removed by centrifugation and cellular pellets washed with HBSS-Glc. Finally, cells were resuspended in 500 μL HBSS-Glc with 20 μg/mL propidium iodide (PI) and 3 mg/mL Ribonuclease A, and incubated in darkness at r. t. for 30 min. PI fluorescence was measured in a Coulter XL EPICS flow cytometer (Beckman Coulter, Nyon, Switzerland) (λEXC = 488 nm, λEM = 620 nm).
Each assay was repeated at least twice. Untreated cells were used as control for a standard cell cycle histogram, and Miltefosine (hexadecylphosphocholine) (15 μM) was used as control for an apoptosis-inducing respiratory inhibitor [51].
Parasites were incubated with the corresponding drug for 72 h, followed by EtOH permeabilization, incubated with 3 mg/mL Ribonuclease A and stained with 20 μg/mL of propidium iodide (PI) before cytofluorometric analysis. (λEXC = 488 nm, λEM = 620 nm). The percentage of subG0/G1 population (enclosed within green bars) stands for degraded chromatin, associated with the apoptotic-like process. Miltefosine (hexadecylphosphocholine, HePc) at 15 μM was added as a control for induction of apoptosis.
In general terms: In flow cytometry, cells or beads pass a laser one at a time.

Experiment [8] concerns mouse peritoneal macrophages (MPM). In words: Cytotoxicity on mouse peritoneal macrophages (MTT reduction). The experiment is classed as cell-based. Particulars: for IC50: Peritoneal macrophage, mouse peritoneal macrophages, MTT reduction. The procedure:
Leishmania parasites were collected at late exponential growth phase by centrifugation at 1610× g at 4 °C. Elicited mouse peritoneal macrophages (MPM) were obtained from 8-week-old Balb/c mice through i.p. injection with 1 mL of 10% thioglycolate medium 72 h before extraction. Macrophages were obtained by peritoneal washing (10 mL PBS, 4 °C).
as §1

Another experiment deals with T2, hGSK-3β (Homo sapiens, UniProt P49841).
T2 construct: purchased Millipore
Put plainly: Inhibition of human recombinant GSK-3β. Format: biochemical. Particulars: read-out: percentage of inhibition of hGSK-3β. The procedure: as §2

Experiment [9] has as its system L. donovani promastigotes. In words: Leishmanicidal activity on promastigotes (MTT reduction), Table 1. The experiment is classed as cell-based. Particulars: Leishmania donovani.

T1 sequence (A6N857 entry or part of it): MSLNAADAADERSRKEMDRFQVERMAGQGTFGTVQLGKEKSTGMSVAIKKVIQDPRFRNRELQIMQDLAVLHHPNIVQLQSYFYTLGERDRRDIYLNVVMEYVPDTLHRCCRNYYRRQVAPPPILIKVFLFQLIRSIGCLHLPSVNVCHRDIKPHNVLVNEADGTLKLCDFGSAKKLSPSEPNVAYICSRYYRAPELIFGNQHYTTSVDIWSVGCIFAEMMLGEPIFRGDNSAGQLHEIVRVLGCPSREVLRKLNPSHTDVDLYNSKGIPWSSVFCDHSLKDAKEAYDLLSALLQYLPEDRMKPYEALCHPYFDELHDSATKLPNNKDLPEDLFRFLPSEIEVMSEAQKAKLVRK
T2 sequence (P49841 whole entry): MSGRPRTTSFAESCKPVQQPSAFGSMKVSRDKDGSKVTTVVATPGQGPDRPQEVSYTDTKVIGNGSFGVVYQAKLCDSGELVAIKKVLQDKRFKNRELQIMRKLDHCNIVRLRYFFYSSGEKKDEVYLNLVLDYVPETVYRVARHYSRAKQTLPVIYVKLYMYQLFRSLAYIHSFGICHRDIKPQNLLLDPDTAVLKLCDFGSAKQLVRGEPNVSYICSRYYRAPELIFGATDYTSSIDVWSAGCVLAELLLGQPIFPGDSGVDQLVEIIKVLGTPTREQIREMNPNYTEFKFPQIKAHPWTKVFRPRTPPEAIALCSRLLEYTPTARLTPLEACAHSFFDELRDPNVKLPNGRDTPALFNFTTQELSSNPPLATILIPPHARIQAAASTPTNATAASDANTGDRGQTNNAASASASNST

In the case of `CC(C)OC(=O)NC1=C(Cl)C(=O)c2ccccc2C1=O` [Compound 2, Isopropyl-(3-chloro-1,4-naphthoquinone-2-yl)carbamate], the “decrease of Rh123 fluorescence” value in [1] (2 μM (IC80)) worked out at 26.4%. In addition, the IC50 – broadly, the point on the concentration scale where inhibition reaches its midpoint – came out at 1.47 ± 0.02 µM in [2], 0.4 ± 0.2 µM in [4], 2.5 ± 0.2 µM at LdGSK-3s [6] and 4.51 ± 0.3 µM in experiment [8]. On LdGSK-3s [3], the “mechanism of inhibition of LdGSK-3s” value is “ATP competitive inhibitors”. Moreover, in experiment [5] (2 μM), the “decrease in parasite load” value is listed as 76.3%. Besides, in experiment [7] (2 μM (IC80)), the “percentage of subG0/G1 population” value is 59.6 ± 1.1%. The inhibition (commonly the percentage by which the read-out fell short of the control) at 10 µM on hGSK-3β stood at 25%.
For `O=C1C=C(O)C(=O)c2c(O)c(Cl)c(Cl)c(O)c21` [MBC-10], the IC50 is 10.5 ± 1.2 µM in experiment [2], 11.2 ± 2.5 µM in [4], around 10 µM on LdGSK-3s [6] and 10.5 ± 1.2 µM in experiment [9]. For the same compound, the inhibition at 10 µM on LdGSK-3s [6] (at 10 μM) was 45.7%.
As for `COC(=O)NC1=C(Cl)C(=O)c2ccccc2C1=O` [MBC-132], the “decrease in Rh123 accumulation” value in experiment [1] (3 μM (IC80)) is around 70%. Besides, the IC50 in experiment [2] was found to be 1.51 ± 0.02 µM; in experiment [4], 0.51 ± 0.01 µM; at LdGSK-3s [6], 2.5 ± 0.1 µM; in experiment [8], 2.6 µM; in experiment [9] it was 1.51 ± 0.02 µM. For the same compound, in [5] (1 μM), the “decrease in parasite load” value stood at 39.1%. Besides, the “percentage of subG0/G1 population” value in experiment [7] (3 μM (IC80)) is reported as 63.2 ± 0.3%. In addition, the “Selectivity Index (SI)” value in experiment [8] (IC50 MPM/IC50 axenic amastigotes) was found to be 5.1. Moreover, the inhibition at 10 µM at hGSK-3β was determined as 19%.
